From ChEMBL document CHEMBL1275483, “Staphylococcus aureus cell wall stress stimulon gene-lacZ fusion strains: potential for use in screening for cell wall-active antimicrobials” (2008)
Converted amounts (≈) assume the structure as drawn. The source made the active and inactive calls. The rule behind the calls is not given here. Where a SMILES comes first, the peptide text is derived from it. Bridges are numbered along the chain shown (N, C = ends). [ ]: non-standard residue; d: D form. The star is where a group is joined. Ileψ(thiazoline)Cys = CC[C@H](C)[C@H](N)C1=N[C@H](C(=O)*)CS1; dOrn = NCCC[C@@H](N)C(=O)O

Columns and labels:
Staphylococcus aureus [1] = test: Induction of Ppbp2::lacZ gene expression in Staphylococcus aureus SH1000 at 150 ug/ml after 2 hrs by beta-galactosidase reporter gene assay relative to untreated control; format: functional
Staphylococcus aureus [2] = test: Induction of PvraSr::lacZ gene expression in Staphylococcus aureus SH1000 at 150 ug/ml after 2 hrs by beta-galactosidase reporter gene assay relative to untreated control; format: functional
Staphylococcus aureus [3] = test: Induction of PtcaA::lacZ gene expression in Staphylococcus aureus SH1000 at 150 ug/ml after 2 hrs by beta-galactosidase reporter gene assay relative to untreated control; format: functional
Staphylococcus aureus [4] = test: Induction of PlytR::lacZ gene expression in Staphylococcus aureus SH1000 at 150 ug/ml after 2 hrs by beta-galactosidase reporter gene assay relative to untreated control; format: functional
Staphylococcus aureus [5] = test: Induction of PsgtB::lacZ gene expression in Staphylococcus aureus SH1000 at 150 ug/ml after 2 hrs by beta-galactosidase reporter gene assay relative to untreated control; format: functional
Staphylococcus aureus [6] = test: Antimicrobial activity against beta-lactamase producing Staphylococcus aureus SH1000; format: functional
Staphylococcus aureus [7] = test: Induction of Ppbp2::lacZ gene expression in Staphylococcus aureus SH1000 at 13.4 ug/ml after 2 hrs by beta-galactosidase reporter gene assay relative to untreated control; format: functional
Staphylococcus aureus [8] = test: Induction of PvraSr::lacZ gene expression in Staphylococcus aureus SH1000 at 13.4 ug/ml after 2 hrs by beta-galactosidase reporter gene assay relative to untreated control; format: functional
Staphylococcus aureus [9] = test: Induction of PtcaA::lacZ gene expression in Staphylococcus aureus SH1000 at 13.4 ug/ml after 2 hrs by beta-galactosidase reporter gene assay relative to untreated control; format: functional
Staphylococcus aureus [10] = test: Induction of PlytR::lacZ gene expression in Staphylococcus aureus SH1000 at 13.4 ug/ml after 2 hrs by beta-galactosidase reporter gene assay relative to untreated control; format: functional
Staphylococcus aureus [11] = test: Induction of PsgtB::lacZ gene expression in Staphylococcus aureus SH1000 at 13.4 ug/ml after 2 hrs by beta-galactosidase reporter gene assay relative to untreated control; format: functional
Staphylococcus aureus [12] = test: Induction of Ppbp2::lacZ gene expression in Staphylococcus aureus SH1000 at 2.5 ug/ml after 2 hrs by beta-galactosidase reporter gene assay relative to untreated control; format: functional
Staphylococcus aureus [13] = test: Induction of PvraSr::lacZ gene expression in Staphylococcus aureus SH1000 at 2.5 ug/ml after 2 hrs by beta-galactosidase reporter gene assay relative to untreated control; format: functional
Staphylococcus aureus [14] = test: Induction of PtcaA::lacZ gene expression in Staphylococcus aureus SH1000 at 2.5 ug/ml after 2 hrs by beta-galactosidase reporter gene assay relative to untreated control; format: functional
Staphylococcus aureus [15] = test: Induction of PlytR::lacZ gene expression in Staphylococcus aureus SH1000 at 2.5 ug/ml after 2 hrs by beta-galactosidase reporter gene assay relative to untreated control; format: functional
Staphylococcus aureus [16] = test: Induction of PsgtB::lacZ gene expression in Staphylococcus aureus SH1000 at 2.5 ug/ml after 2 hrs by beta-galactosidase reporter gene assay relative to untreated control; format: functional
Staphylococcus aureus [17] = test: Induction of Ppbp2::lacZ gene expression in Staphylococcus aureus SH1000 at 3 ug/ml after 2 hrs by beta-galactosidase reporter gene assay relative to untreated control; format: functional
Staphylococcus aureus [18] = test: Induction of PvraSr::lacZ gene expression in Staphylococcus aureus SH1000 at 3 ug/ml after 2 hrs by beta-galactosidase reporter gene assay relative to untreated control; format: functional
Staphylococcus aureus [19] = test: Induction of PtcaA::lacZ gene expression in Staphylococcus aureus SH1000 at 3 ug/ml after 2 hrs by beta-galactosidase reporter gene assay relative to untreated control; format: functional
Staphylococcus aureus [20] = test: Induction of PlytR::lacZ gene expression in Staphylococcus aureus SH1000 at 3 ug/ml after 2 hrs by beta-galactosidase reporter gene assay relative to untreated control; format: functional
Staphylococcus aureus [21] = test: Induction of PsgtB::lacZ gene expression in Staphylococcus aureus SH1000 at 3 ug/ml after 2 hrs by beta-galactosidase reporter gene assay relative to untreated control; format: functional
Staphylococcus aureus [22] = test: Induction of Ppbp2::lacZ gene expression in Staphylococcus aureus SH1000 at 0.3 ug/ml after 0.5 hrs by beta-galactosidase reporter gene assay relative to untreated control; format: functional, organism-based
Staphylococcus aureus [23] = test: Induction of Ppbp2::lacZ gene expression in Staphylococcus aureus SH1000 at 8 ug/ml after 2 hrs by beta-galactosidase reporter gene assay relative to untreated control; format: functional, organism-based
Staphylococcus aureus [24] = test: Induction of PvraSr::lacZ gene expression in Staphylococcus aureus SH1000 at 8 ug/ml after 2 hrs by beta-galactosidase reporter gene assay relative to untreated control; format: functional, organism-based
Staphylococcus aureus [25] = test: Induction of PtcaA::lacZ gene expression in Staphylococcus aureus SH1000 at 8 ug/ml after 2 hrs by beta-galactosidase reporter gene assay relative to untreated control; format: functional, organism-based
Staphylococcus aureus [26] = test: Induction of PlytR::lacZ gene expression in Staphylococcus aureus SH1000 at 8 ug/ml after 2 hrs by beta-galactosidase reporter gene assay relative to untreated control; format: functional, organism-based
Staphylococcus aureus [27] = test: Induction of PsgtB::lacZ gene expression in Staphylococcus aureus SH1000 at 8 ug/ml after 2 hrs by beta-galactosidase reporter gene assay relative to untreated control; format: functional, organism-based

Question: Which “fold change (FC)” value (Staphylococcus aureus [1]) does the source give for `N[C@@H]1CONC1=O` [CYCLOSERINE] here?
Answer: 3.41

Question: And the “fold change (FC)” value (Staphylococcus aureus [2])?
Answer: 4.08

Question: And the “fold change (FC)” value (Staphylococcus aureus [3])?
Answer: 4.6

Question: What about the “fold change (FC)” value (Staphylococcus aureus [4]) of the same compound?
Answer: 3.13

Question: And the “fold change (FC)” value (Staphylococcus aureus [5])?
Answer: 15.63

Question: And the MIC (Staphylococcus aureus [6])?
Answer: 1 µg/mL (≈ 9.79 µM)

Question: What does the source list for `CC[C@H](C)[C@H](N)C1=N[C@H](C(=O)N[C@@H](CC(C)C)C(=O)N[C@H](CCC(=O)O)C(=O)N[C@H](C(=O)N[C@H]2CCCCNC(=O)[C@H](CC(N)=O)NC(=O)[C@@H](CC(=O)O)NC(=O)[C@H](Cc3cnc[nH]3)NC(=O)[C@@H](Cc3ccccc3)NC(=O)[C@H]([C@@H](C)CC)NC(=O)[C@@H](CCCN)NC2=O)[C@@H](C)CC)CS1` [BACITRACIN] ({Ileψ(thiazoline)Cys}-L[dE]IK[dOrn]I[dF]H[dD]N; lactam 4-C)?
Answer: fold change (FC) (Staphylococcus aureus [7]): 3.7; fold change (FC) (Staphylococcus aureus [8]): 1.92; fold change (FC) (Staphylococcus aureus [9]): 3.99; fold change (FC) (Staphylococcus aureus [10]): 1.94; fold change (FC) (Staphylococcus aureus [11]): 4.63; MIC (Staphylococcus aureus [6]): 2 µg/mL (≈ 1.41 µM)

Question: `CC[C@H]1OC(=O)[C@H](C)[C@@H](O[C@H]2C[C@@](C)(OC)[C@@H](O)[C@H](C)O2)[C@H](C)[C@@H](O[C@@H]2O[C@H](C)C[C@H](N(C)C)[C@H]2O)[C@](C)(O)C[C@@H](C)C(=O)[C@H](C)[C@@H](O)[C@]1(C)O` [ERYTHROMYCIN] was tested. Which “fold change (FC)” value (Staphylococcus aureus [12]) did it give?
Answer: 1.15

Question: What about the “fold change (FC)” value (Staphylococcus aureus [13]) of the same compound?
Answer: 0.8

Question: And the “fold change (FC)” value (Staphylococcus aureus [14])?
Answer: 1.12

Question: And the “fold change (FC)” value (Staphylococcus aureus [15])?
Answer: 1.04

Question: And the “fold change (FC)” value (Staphylococcus aureus [16])?
Answer: 0.93

Question: What about the MIC (Staphylococcus aureus [6]) of the same compound?
Answer: 2 µg/mL (≈ 2.73 µM)

Question: `CN[C@@H]1[C@H](O[C@H]2[C@H](O[C@H]3[C@H](O)[C@@H](O)[C@H](N=C(N)N)[C@@H](O)[C@@H]3N=C(N)N)O[C@@H](C)[C@]2(O)C=O)O[C@@H](CO)[C@H](O)[C@H]1O` [STREPTOMYCIN] was tested. Which “fold change (FC)” value (Staphylococcus aureus [17]) did it give?
Answer: 0.3

Question: What about the “fold change (FC)” value (Staphylococcus aureus [18]) of the same compound?
Answer: 0.96

Question: And the “fold change (FC)” value (Staphylococcus aureus [19])?
Answer: 0.79

Question: What about the “fold change (FC)” value (Staphylococcus aureus [20]) of the same compound?
Answer: 0.7

Question: What about the “fold change (FC)” value (Staphylococcus aureus [21]) of the same compound?
Answer: 0.41

Question: And the MIC (Staphylococcus aureus [6])?
Answer: 1.5 µg/mL (≈ 2.58 µM)

Question: Which results are given for `Cc1onc(-c2ccccc2)c1C(=O)N[C@@H]1C(=O)N2[C@@H]1SC(C)(C)[C@@H]2C(=O)O` [OXACILLIN]?
Answer: Activity (Staphylococcus aureus [22]): Active; Activity (Staphylococcus aureus [23]): Active; Activity (Staphylococcus aureus [24]): Active; Activity (Staphylococcus aureus [25]): Active; Activity (Staphylococcus aureus [26]): Active; Activity (Staphylococcus aureus [27]): Active; MIC (Staphylococcus aureus [6]): 1 µg/mL (≈ 2.49 µM)
